Laboratory results: PubChem BioAssay (NCI)
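Results reflect a 48-hour exposure of cells in 96-well plates to compound at five concentrations. Abbreviation: GI50, concentration required for 50% inhibition of growth. TGI marks complete inhibition of growth.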

Assays:
Test in all cases: NCI tumour cell line growth inhibition, 48 h
HT29 colon = tested on: HT29 colon
COLO 205 colon = tested on: COLO 205 colon
MCF7 breast = tested on: MCF7 breast
HCT-15 colon = tested on: HCT-15 colon
SN12C renal = tested on: SN12C renal
NCI-H23 lung = tested on: NCI-H23 lung
TK-10 renal = tested on: TK-10 renal
K-562 leukemia = tested on: K-562 leukemia
UACC-257 melanoma = tested on: UACC-257 melanoma
U251 CNS = tested on: U251 CNS

SMILES | GI50 (HT29 colon) | TGI (HT29 colon) | GI50 (COLO 205 colon) | TGI (COLO 205 colon) | GI50 (MCF7 breast) | TGI (MCF7 breast) | GI50 (HCT-15 colon) | TGI (HCT-15 colon) | GI50 (SN12C renal) | TGI (SN12C renal) | GI50 (NCI-H23 lung) | TGI (NCI-H23 lung) | GI50 (TK-10 renal) | TGI (TK-10 renal) | GI50 (K-562 leukemia) | TGI (K-562 leukemia) | GI50 (UACC-257 melanoma) | TGI (UACC-257 melanoma) | GI50 (U251 CNS) | TGI (U251 CNS)
CC1=C(CC(=O)c2cccc([N+](=O)[O-])c2)C(=O)c2ccccc2C1=O | 20100 nM | 58800 nM | 19700 nM | 37600 nM | 1410 nM | 3650 nM | 3790 nM | 19500 nM | 2610 nM | 8390 nM | 9120 nM | 36900 nM | 39700 nM | 85800 nM | 7250 nM | 38900 nM | 3940 nM | 16100 nM | 6740 nM | 21600 nM
Oc1cccc2ccc(N/N=C/c3cc(CN4CCOCC4)c(O)c4ncccc34)nc12 | 324 nM | 5920 nM | 117 nM | 1600 nM | 21 nM | 1540 nM | < 10.4 nM | 1780 nM | 34.8 nM | 7820 nM | 32.7 nM | 1730 nM | 49.7 nM | 13500 nM | 15.2 nM | 6030 nM | 36.8 nM | 440 nM | < 15.4 nM | 3740 nM
O=C(CC1(O)C(=O)N(Cc2ccccc2)c2ccccc21)c1ccc(C(=O)NCC2CCC3(CC2)OOC2(CCCCC2)OO3)cc1 (stereo not given) | 1720 nM | 3820 nM | 1930 nM | 4510 nM | 2430 nM | 10500 nM | 1760 nM | 4760 nM | 1660 nM | 3760 nM | 402 nM | 1280 nM | 835 nM | 2240 nM | 1720 nM | 4830 nM | 5010 nM | 22900 nM | 774 nM | 2170 nM
CC1(C)CC(=O)C2=C(C1)OC(N)=C(c1nc(-c3ccccc3)cs1)C2c1ccc(Br)cc1 (stereo not given) | 67.4 µg/mL | > 150 µg/mL | 41.8 µg/mL | > 150 µg/mL | 18.2 µg/mL | 101 µg/mL | 36.1 µg/mL | > 150 µg/mL | 51.8 µg/mL | > 150 µg/mL | 53.7 µg/mL | > 150 µg/mL | 76.9 µg/mL | > 150 µg/mL | 68.8 µg/mL | > 150 µg/mL | 97.1 µg/mL | > 150 µg/mL | 71.2 µg/mL | > 150 µg/mL
Cc1ccc(-c2nc([P+](c3ccccc3)(c3ccccc3)c3ccccc3)c(S(=O)(=O)c3ccc(C)cc3)o2)cc1 | 1700 nM | 4170 nM | 1710 nM | 4280 nM | 1520 nM | 3830 nM | 1440 nM | 3230 nM | 1060 nM | 2340 nM | 1680 nM | 3500 nM | 1730 nM | 3270 nM | 312 nM | 3220 nM | 1700 nM | 3700 nM | 1140 nM | 2430 nM
